TGI and GI50 data for 13 compounds are collected here from PubChem BioAssay (NCI).

Some test systems named below: RPMI-8226 leukemia; DU-145 prostate; HCT-116 colon; A498 renal; 786-0 renal; SF-268 CNS; SF-539 CNS; NCI/ADR-RES ovarian; LOX IMVI melanoma; CCRF-CEM leukemia.
What all share (test): NCI anticancer screen, dose series, 48 h

Molecules are shown by their SMILES.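 Each compound was tested at five concentrations against cells in 96-well plates for 48 hours. GI50 marks 50% less growth. TGI: total growth inhibition.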 A value given as a limit tells only on which side of the number the result lay.

As to `Clc1ccc(-c2nn3c(COc4cccc(OCc5nnc6sc(-c7ccc(Cl)cc7)nn56)c4)nnc3s2)cc1`, the TGI is above 100 µM in the assay with RPMI-8226 leukemia; 74.3 µM in the assay with DU-145 prostate; 44.7 µM with HCT-116 colon; 61.8 µM with A498 renal; 59.9 µM with 786-0 renal; above 100 µM in the assay on SF-268 CNS. Besides, the values for the TGI with SF-539 CNS, in the assay on NCI/ADR-RES ovarian and in the assay with LOX IMVI melanoma were 49.5 µM, above 100 µM and above 100 µM, respectively.
`COc1c(C)c(C/C=C(\C)CCCC(C)CCCC(C)CCCC(C)C)c(OC)c2ccccc12` (configuration not stated): the TGI with RPMI-8226 leukemia, with DU-145 prostate, with CCRF-CEM leukemia, in the assay with HCT-116 colon, in the assay on 786-0 renal and in the assay on SF-268 CNS was above 100 µM each time. The TGI in the assay with SF-539 CNS, in the assay on NCI/ADR-RES ovarian and with LOX IMVI melanoma was above 100 µM in each case.
For `CC(=O)/C=C/c1ccccc1`, the TGI is above 100 µM in the assay with RPMI-8226 leukemia; above 100 µM in the assay with DU-145 prostate; above 100 µM in the assay on CCRF-CEM leukemia; above 100 µM in the assay on HCT-116 colon; 76.3 µM in the assay with A498 renal; 49.1 µM with 786-0 renal. The TGI was above 100 µM in the assay on SF-268 CNS, 64.6 µM in the assay with SF-539 CNS and above 100 µM with NCI/ADR-RES ovarian.
On to `Cc1cc(S(=O)(=O)Nc2nc3cscc3c(=O)n2N)c(S)cc1Cl`, for which the TGI with RPMI-8226 leukemia, with DU-145 prostate, in the assay with CCRF-CEM leukemia, in the assay with HCT-116 colon, in the assay on 786-0 renal and with SF-268 CNS was above 100 µM throughout. Moreover, the TGI in the assay with SF-539 CNS was above 100 µM; in the assay on NCI/ADR-RES ovarian it was 73.4 µM; in the assay with LOX IMVI melanoma, above 100 µM.
`O=C(O)Cn1c2c(c3c1-c1ccccc1C3=O)C(=O)CCC2`: the GI50 in the assay on DU-145 prostate was above 100 µM; with CCRF-CEM leukemia, 32 µM; in the assay with HCT-116 colon, above 100 µM; with A498 renal, above 100 µM; with SF-268 CNS it was above 100 µM; with SF-539 CNS, above 100 µM. Also, the GI50 in the assay with NCI/ADR-RES ovarian and in the assay with LOX IMVI melanoma was above 100 µM throughout. The TGI in the assay with DU-145 prostate, in the assay with CCRF-CEM leukemia, in the assay on HCT-116 colon, with A498 renal, in the assay with SF-268 CNS and in the assay with SF-539 CNS was above 100 µM each time. The TGI in the assay on NCI/ADR-RES ovarian and with LOX IMVI melanoma was above 100 µM in each case.
As to `O=c1c2ccccc2nc(N/N=C/c2ccc([N+](=O)[O-])cc2)n1-c1ccccc1`, the TGI in the assay with RPMI-8226 leukemia is above 100 µM; in the assay with DU-145 prostate, above 100 µM; with CCRF-CEM leukemia, above 100 µM; with HCT-116 colon, above 100 µM; in the assay on 786-0 renal, 20.1 µM; in the assay with SF-268 CNS, 59.3 µM. Also, the TGI in the assay on NCI/ADR-RES ovarian and in the assay on LOX IMVI melanoma was above 100 µM throughout.
Turning to `CCOC(=O)CCc1cn2cc(Br)nc(OC)c2n1`, the TGI in the assay on RPMI-8226 leukemia, in the assay on DU-145 prostate, in the assay with CCRF-CEM leukemia, in the assay with HCT-116 colon, in the assay on 786-0 renal and with SF-268 CNS was above 100 µM throughout. The TGI with SF-539 CNS, in the assay on NCI/ADR-RES ovarian and in the assay with LOX IMVI melanoma was above 100 µM throughout.
Turning to `c1ccc2c(Nc3ncco3)cccc2c1`, the TGI in the assay on DU-145 prostate, in the assay with CCRF-CEM leukemia, in the assay on HCT-116 colon, in the assay on A498 renal, with 786-0 renal and in the assay with SF-268 CNS was above 10 µM each time. Also, the TGI in the assay on SF-539 CNS, with NCI/ADR-RES ovarian and with LOX IMVI melanoma was above 10 µM in each case.
For the compound `Cc1cn(C2CC(COCc3ccccc3)N(CCO[Si](C)(C)C(C)(C)C)O2)c(=O)[nH]c1=O` (configuration not stated), the TGI in the assay on RPMI-8226 leukemia is 34.1 µM; in the assay on DU-145 prostate it was 31 µM; with HCT-116 colon, 43 µM; in the assay on A498 renal it was 36.8 µM; in the assay with 786-0 renal, above 100 µM; in the assay with SF-268 CNS, 35.7 µM. In addition, the TGI in the assay on SF-539 CNS was 33.9 µM; with NCI/ADR-RES ovarian it was 28.9 µM.
Regarding `Cc1c(OCc2cccc3ccccc23)ccc2c(=O)cc(SCCN3CCOCC3)oc12`, the TGI in the assay on DU-145 prostate, with CCRF-CEM leukemia, in the assay on HCT-116 colon, in the assay with A498 renal, in the assay on 786-0 renal and in the assay on SF-268 CNS was above 100 µM throughout. Moreover, the TGI in the assay with SF-539 CNS, in the assay with NCI/ADR-RES ovarian and in the assay with LOX IMVI melanoma was above 100 µM throughout.
`Cc1cc2c(c(C(=O)NCC(=O)O)c1)Oc1c(cc(C)cc1C(=O)NCC(=O)O)S2`: the TGI with RPMI-8226 leukemia, in the assay on DU-145 prostate, with CCRF-CEM leukemia, in the assay on HCT-116 colon, in the assay with 786-0 renal and with SF-268 CNS was above 100 µM each time. For the same compound, the TGI in the assay on SF-539 CNS, in the assay with NCI/ADR-RES ovarian and with LOX IMVI melanoma was above 100 µM throughout.
On to `O=C(O)CSC1=NNC2(C(=O)N1)c1ccccc1-c1ccccc12`, for which the TGI with RPMI-8226 leukemia, with DU-145 prostate, in the assay on CCRF-CEM leukemia, with HCT-116 colon, with 786-0 renal and in the assay with SF-268 CNS was above 10 µM throughout. The TGI in the assay with SF-539 CNS, in the assay on NCI/ADR-RES ovarian and in the assay on LOX IMVI melanoma was above 10 µM throughout.
For `O=c1[nH]cc(N=Cc2cc(Cl)ccc2O)c(=O)[nH]1`, the TGI in the assay on RPMI-8226 leukemia was 53.3 µM; with DU-145 prostate, 66.8 µM; in the assay with CCRF-CEM leukemia, 19 µM; in the assay with HCT-116 colon, above 100 µM; in the assay on A498 renal, above 100 µM; in the assay on 786-0 renal, 70.6 µM. The figures for the TGI in the assay with SF-268 CNS, in the assay on SF-539 CNS and with NCI/ADR-RES ovarian were 47.3 µM, 7.43 µM and 53.6 µM, respectively.
